Laboratory results as given in patent US20180353457A1, “ABIETANE DITERPENOID 7-ACETOXYROYLEANONES FOR USE IN CANCER TREATMENT” (University of South Carolina, priority 2017, published 2018).
Read-outs that look alike come from different tables or passages of the source.

How the values were obtained:
[1] = tested on: A2780ADR (doxorubicin resistant subclone of ovarian carcinoma A2780) cells; experiment: MTS cytotoxicity assay, A2780ADR; type: cell-based; conditions: 48 and 72 hours of exposure
Source text: (§1) Human cell lines used included MG-63 (osteosarcoma), SK-OV-3 (ovarian adenocarcinoma), MDA-MB-231 (breast adenocarcinoma derived from a metastatic site), HCT 116 (colorectal carcinoma), HCT 116/200 (an FdUrd resistant subclone of HCT 116 cells), and A2780ADR (a doxorubicin resistant subclone of the ovarian carcinoma A2780). All cells were stored in liquid nitrogen until use. MG-63, SK-OV-3, MDA-MB-231, and HCT 116 cell lines were all obtained from ATCC. A2780ADR cells were obtained from Sigma-Aldrich. HCT 116/200 cells were obtained from Dr. Franklin G. Berger from the Center for Colon Cancer Research. MG-63 cells were maintained in MEM medium (Corning) supplemented with 10% Fetal Bovine Essence (VWR) and 1% penicillin/streptomycin solution (Corning). SK-OV-3 cells were maintained in McCoy's 5A Medium (Sigma) supplemented with Fetal Bovine Essence and 1% penicillin/streptomycin. […]
(§2) Cells were first grown to approximately 80% confluency within […] tissue culture flasks (VWR). […] Cells were counted using a hemocytometer and their viability was confirmed using trypan blue (Gibco). […]
(§3) In combination studies, 7-acetoxyroyleanone and FdUrd were first mixed into the same media and then added to the cells. […] The cells were incubated for 2 hours, and the absorbance of each well at 490 nm was measured using a Spectramax 190 microplate reader.

[2] = tested on: MDA-MB-231 (breast adenocarcinoma) cells; experiment: MTS cytotoxicity assay, MDA-MB-231; type: cell-based; conditions: MDA-MB-231 cells
Source text: as §1, §2, §3

leukemia cell lines = conditions: read-out: LC50; each leukemia cell line; not reached at highest concentration tested
[3] = tested on: HCT 116/200 (FdUrd resistant subclone of HCT 116) cells; experiment: MTS cytotoxicity assay, HCT 116/200; type: cell-based; conditions: HCT 116/200 cells
Source text: as §1, §2, §3

[4] = tested on: HCC-2996 (colon cancer) cells; experiment: NCI-60 five dose screen, HCC-2996
[5] = tested on: MDA-MB-468 (breast cancer) cells; experiment: NCI-60 five dose screen, MDA-MB-468; conditions: read-out: LC50; MDA-MB-468, Breast
[6] = tested on: HOP-92 (non-small cell lung cancer) cells; experiment: NCI-60 five dose screen, HOP-92; conditions: read-out: LC50; HOP-92, Non-small Cell Lung Cancer
[7] = tested on: HCT 116 (colorectal carcinoma) cells; experiment: MTS cytotoxicity assay, HCT 116; type: cell-based; conditions: HCT 116 cells
Source text: as §1, §2, §3

[8] = tested on: OVCAR-3 (ovarian cancer) cells; experiment: NCI-60 five dose screen, OVCAR-3; conditions: read-out: LC50; OVCAR-3, Ovarian
[9] = tested on: SF-295 (CNS cancer) cells; experiment: NCI-60 five dose screen, SF-295; conditions: read-out: LC50; SF-295, CNS
[10] = tested on: SK-OV-3 (ovarian adenocarcinoma) cells; experiment: MTS cytotoxicity assay, SK-OV-3; type: cell-based; conditions: SK-OV-3 cells
Source text: as §1, §2, §3

[11] = tested on: NCI-60 panel of cancer cell lines; conditions: for GI50: across all 60 cell lines
[12] = tested on: COLO 205 (colon cancer) cells; experiment: NCI-60 five dose screen, COLO 205; conditions: read-out: LC50; COLO 205, Colon
[13] = tested on: MG-63 (osteosarcoma) cells; experiment: MTS cytotoxicity assay, MG-63; type: cell-based; conditions: MG-63 cells, 48 and 72 hours of exposure
Source text: as §1, §2, §3

[14] = tested on: SK-MEL-5 (melanoma) cells
[15] = 48 and 72 hours of exposure, MTS
[16] = HCC-2996, most sensitive cell line to growth inhibition

Compound: CC(=O)O[C@@H]1C[C@H]2C(C)(C)CCC[C@]2(C)C2=C1C(=O)C(C(C)C)=C(O)C2=O [7-acetoxyroyleanone]
- cytotoxicity (percent viability) [1]: significant cytotoxic properties
- cell death at the lowest concentration tested ([2]; 1 μg/mL): cell death was indicated
- cytotoxicity (percent viability) [2, 15]: significant cytotoxic properties
- CC50 (leukemia cell lines): > 100 µM
- cytotoxicity (percent viability) ([3]; 48 and 72 hours of exposure): significant cytotoxic properties
- cytotoxic effect in combination with FdUrd (percent viability, cell number) ([3]; 48 hour exposure, combined with 1 μg/mL FdUrd): synergistic cytotoxic effect
- GI50 [4, 16]: 0.405 µM
- TGI [4, 16]: 1.62 µM
- CC50 ([4]; read-out: LC50, HCC-2996, Colon): 6.41 µM
- CC50 [5]: 9.46 µM
- CC50 [6]: 5.4 µM
- cell death at the lowest concentration tested ([7]; 1 μg/mL): cell death was indicated
- cytotoxicity (percent viability) [7, 15]: significant cytotoxic properties
- CC50 [8]: 7.46 µM
- CC50 [9]: 7.37 µM
- cell death at the lowest concentration tested ([10]; 1 μg/mL): cell death was indicated
- cytotoxicity (percent viability) [10, 15]: significant cytotoxic properties
- CC50 [11]: 11.5 µM
- average TGI concentration ([11]; across the 50 cell lines with TGI within the range tested): 6.69 µM
- GI50 ([11]; read-out: average GI50 concentration, five dose screen): 1.27 µM
- GI50 ([11]; read-out: range of the GI50 concentrations): 2.86 µM
- CC50 [12]: 6.3 µM
- cytotoxicity (percent viability) [13]: significant cytotoxic properties
- CC50 [14]: 4.34 µM
